Measured values from article PMC9116245, “New 1,2,3-triazole linked ciprofloxacin-chalcones induce DNA damage by inhibiting human topoisomerase I& II and tubulin polymerization” (Journal of Enzyme Inhibition and Medicinal Chemistry, 2022).
Like-named read-outs stand apart in the source and are kept apart here.

Experiments:
[1] = test system: leukemia SR; parameters: method as in PMID 33248713, PMID 24090914; conditions: Figure 1; cited from earlier work
[2] = test system: HT-29; test: MTT assay; type: cell-based; conditions: Homo sapiens; HT-29, MTT assay, 24 h incubation
Description: (§1) The proliferation of colorectal cancer cells (HCT116, HT29 and Caco-2) was assessed using MTT assay as previously reported. Cells were treated with increasing concentrations of 1, 5, 10, 20, 40, 80 or 100 µM of CP hybrids 4a-j, doxorubicin, or DMSO. See Supplementary Appendix A.

[3] = test system: HCT116; test: MTT assay; type: cell-based; conditions: Homo sapiens, HCT-116, 24 h incubation
Description: as §1

[4] = test system: Caco-2; test: MTT assay; type: cell-based; conditions: Homo sapiens; Caco-2, MTT assay, 24 h incubation
Description: as §1

[5] = test system: Human Embryonic Kidney (HEK) 293 cells; test: Cytotoxicity assay with non-cancerous cells (MTS); type: cell-based; conditions: Homo sapiens; HEK293, 72 h incubation
Description: To evaluate the selectivity and safety profile of the synthesised CP hybrids, a cytotoxicity experiment of compounds 4a, 4b, 4e, 4i, and 4j was performed using normal Human Embryonic Kidney (HEK) 293 cells.
To evaluate the selectivity and safety profile of the synthesised ciprofloxacin-chalcone hybrids, a cytotoxicity experiment was performed using a non-cancerous cell line. Briefly, Human Embryonic Kidney (HEK) 293 cells (ATCC, Manassas, VA, USA) were cultured in a Dulbecco’s Modified Eagle Medium (DEMEM) supplemented with 1 mM sodium pyruvate, 10 mM HEPES buffer solution, 2 mM GlutaMAX (Gibco, Grand Island, NY, USA), 50 µg/mL gentamycin sulphate (Dubuque, IA, USA), and 10% foetal bovine serum (ThermoFisher Scientific, USA). Cells were seeded in 96-well plates and incubated overnight in a humidified atmosphere with 5% CO2 at 37 °C. After 24 h, cells were treated with different concentrations (0.01–100 µM) of ciprofloxacin-chalcone hybrids. Also, DMSO and doxorubicin were used as negative and positive controls, respectively. After 72 h, old medium containing treatments were removed, and fresh medium and MTS reagents (CellTiter 96® AQueous One Solution Cell Proliferation Assay, Promega, Madison, WI, USA) were added. […] After 2 h, the absorbance was measured at 490 nm using a Spectra Max plus 384 Microplate reader (Molecular Devices, Sunnyvale, CA, USA) [74]. […]

[6] = test system: non small lung cancer A459; parameters: method as in PMID 27555286; conditions: non small lung cancer A459, printed in Figure 1; cited from earlier work
[7] = test system: normal lung fibroblast WI-38; parameters: method as in PMID 27555286; conditions: normal lung fibroblast WI-38, printed in Figure 1; cited from earlier work
[8] = parameters: method as in PMID 33248713, PMID 24090914; conditions: Figure 1; cited from earlier work
[9] = test system: MCF-7 cancer cell lines; parameters: method as in earlier work; conditions: cited from earlier work
[10] = test system: tubulin polymerisation; test: Tubulin immunofluorescence microscopy in HCT116 cells; type: cell-based, human; conditions: HCT116, IC50 of compound, 36 h
Description: (§2) The process of tubulin polymerisation in the cells is important for the completion of mitosis and is targeted for cancer treatment. It has been reported that the suppression of tubulin polymerisation will arrest the cells at the G2/M and it eventually leads to cell death. To test the tubulin-disruptive effect of the CP hybrids, HCT116 cells were analysed by immunocytochemistry. HCT116 cells were incubated for 36 h with IC50 of the CP hybrids (4a, 4b, 4e, 4i, and 4j), nocodazole (a well-known tubulin polymerisation inhibitor, as a positive control), DMSO or Paclitaxel (a well-known tubulin polymerisation inducer, as a negative control), and tubulin was visualised by immunofluorescence microscopy. An antibody for α-tubulin was used. […] Moreover, a Western blot was performed to verify the tubulin polymerisation inhibition ability of the synthesised compounds (Figure 8(B)). The level of polymerised tubulin was decreased in HCT116 cells treated with IC50 values of CP hybrids 4a, 4b, 4e, 4i, 4j, or nocodazole.
HCT116 cells were cultured and treated with the IC50 of the potent compounds (4a, 4b, 4e, 4i, and 4j) or DMSO (control), fixed, permeabilized, and they were incubated with either γH2AX or α-tubulin antibody as the reported procedure in the literature. Confocal images were captured using a Confocal Microscope with a 63X objective. All images were processed using ImageJ software. See Supplementary Appendix A.

[11] = test system: polymerised tubulin; test: Western blot of polymerised tubulin in HCT116 cells; type: cell-based, human; conditions: HCT116, IC50 values of compounds
Description: as §2
Western blotting analysis for HCT116 cells was performed according to the reported procedure in the literature[77–79] to determine the effects of CP hybrids; 4a, 4b, 4e, 4i, and 4j on the expression of polymerised tubulin, γH2AX, p-ATR, p-CHK1, and p-Cdc25C by using the appropriate antibody. See Supplementary Appendix A.

For CC[C@@]1(O)C(=O)OCc2c1cc1n(c2=O)Cc2cc3ccccc3nc2-1 [Camptothecin], the IC50 [1] is given as 3320 nM.

With COc1cccc2c1C(=O)c1c(O)c3c(c(O)c1C2=O)C[C@@](O)(C(=O)CO)C[C@@H]3O[C@H]1C[C@H](N)[C@H](O)[C@H](C)O1 [Doxorubicin, reference compound] the IC50 [2] was 880 ± 580 nM, the IC50 [3] was 1220 ± 270 nM and the IC50 [4] was 4150 ± 1080 nM. It also gave an IC50 [5] of 47.5 nM.

In the case of O=C(CN1CCN(c2cc3c(cc2F)c(=O)c(C(=O)O)cn3C2CC2)CC1)Nc1ccc(Cl)cc1 [III], the IC50 [6] is listed as 14800 nM and the IC50 [7] is listed as over 100000 nM.

For COc1cc(/C=C/C(=O)c2ccc(NC(=O)N3CCN(c4cc5c(cc4F)c(=O)c(C(=O)O)cn5C4CC4)CC3)cc2)cc(OC)c1OC [II], the IC50 [1] is given as 640 nM.

In the case of O=C(CN1CCN(c2cc3c(cc2F)c(=O)c(C(=O)O)cn3C2CC2)CC1)Nc1ccc(C(=O)/C=C/c2ccccc2)cc1 [I], the GI50 [8] is given as 430 to 39600 nM.

For CCOc1cc(/C=C/C(=O)c2cccc(O)c2)ccc1OCc1cn(-c2cc(Cl)ccc2O)nn1 [X], the IC50 ([9]; MCF-7, 24 h) is given as 1270 nM and the IC50 ([9]; MCF-7, 48 h) is given as 20 nM.

For COC(=O)Nc1nc2ccc(C(=O)c3cccs3)cc2[nH]1 [nocodazole, reference compound], the “tubulin polymerisation, morphological changes by immunofluorescence” value [10] was “significant tubulin polymerisation inhibition” and the “level of polymerised tubulin, Western blot” value [11] was “decreased”.
